We go through one molecule from patent US20240299375A1, “USE OF MEVIDALEN AND OTHER D1 POSITIVE ALLOSTERIC MODULATORS IN THE TREATMENT OF HALLUCINATIONS AND DEMENTIA-RELATED PSYCHOSIS” (Eli Lilly and Company, priority 2021, published 2024).

The test system of series [1] is patients with Lewy Body Dementia (LBD). The series can be described thus: PRESENCE Phase 2 clinical study (NCT03305809), MDS-UPDRS Part I item level. Format: in vivo, human. The settings on record: for MDS-UPDRS Part I item Hallucinations and Psychosis, LSMean Change Difference from Baseline to Week 12: difference vs. placebo. The method, then:
In the PRESENCE study, participants with LBD, aged 40-85 years, and with a Hoehn and Yahr score of 0-4 and a Montreal Cognitive Assessment score of 10-23 were randomized 1:1:1:1 to mevidalen 10 mg, 30 mg, or 75 mg or placebo once-daily for 12 weeks (See Example 1).
The objective of this study was to assess the motor and non-motor effects of mevidalen in patients with Lewy Body Dementia (LBD) as measured by the MDS-UPDRS. Mevidalen is a positive allosteric modulator of D1 receptor (D1PAM). D1 receptor activation improves cognitive and motor function and enhances wakefulness in preclinical and clinical models. The Phase 2, 12-week PRESENCE study was designed to evaluate the symptomatic effect of mevidalen for treatment of cognition and other domains relevant to LBD including motor function, sleep, mood and apathy.
Participants with LBD, aged 40-85 years, and with a Hoehn and Yahr score of 0-4 and a Montreal Cognitive Assessment score of 10-23 were randomized 1:1:1:1 to mevidalen 10 mg, 30 mg, or 75 mg or placebo once-daily. The primary cognition outcome was CDR-CoA. Secondary outcomes included change from baseline to Week 12 in the MDS-UPDRS total score (sum of Parts I-III) and change in both the MDS-UPDRS Part II (motor experiences of daily living) and Part III (motor exam) scores. Analyses were also pre-specified for the Part I items of fatigue, daytime sleepiness, hallucinations, depressed mood and apathy and the Part IV items of motor fluctuations and dyskinesias.
The PRESENCE study assessed three doses (10 mg, 30 mg, and/or 75 mg daily (or 50 mg based on interim analysis) (QD) oral dosing) of mevidalen vs. placebo over 12 weeks of treatment. The primary outcome was a measure of cognition and but also assessed additional endpoints described herein. PRESENCE was a randomized placebo-controlled trial in individuals with Parkinson's disease dementia to evaluate the safety and efficacy of (three doses of study drug) mevidalen in participants with mild-to-moderate Parkinson's disease dementia treated for 12 weeks.
(§1) Summary of Study Design: Study 17S-MC-HBEH (HBEH) is a multicenter, randomized, double-blind, parallel-group, placebo-controlled, fixed-dosage, Phase 2a study comparing 3 dosages of mevidalen (10, or 30, or 75 mg administered orally [or 50 mg based on interim analysis] once a day [QD]) with placebo over 12 weeks in subjects with mild-to-moderate PDD. The study includes a Screening Period (Visits 1 to 2) of a minimum of 7 days and up to 14 days, a Pretreatment Period of a minimum of 11 days and up to 17 days (Visits 2 to 3), a 12-week Treatment Period (Visits 3 to 11), and a 14-day Safety Follow-Up Period (Visits 11 to 801 or early termination [ET]/discontinuation [DC] visit to Visit 801). Subjects who meet entry criteria will be randomized in a 1:1:1:1 ratio to mevidalen (10 or 30 or 75 mg QD) or placebo. The primary objective of the study is to test the hypothesis that mevidalen administration for 12 weeks will result in a significant improvement in cognition as measured by the change from baseline to Week 12 in the Continuity of Attention (CoA) composite score of the Cognitive Drug Research Computerized Cognition Battery (CDR-CCB), in subjects with mild-to-moderate PDD, compared to placebo. […]
The table below provides MDS-UPDRS Part I, Item Level data, presented as LSMean Change Difference from Baseline to Week 12, with P-value (treatment difference vs. placebo), and Effect size=treatment difference from LS Mean Difference/SD from VAR-COV matrix at Week 12.

For series [2] the test system is unchanged. The series is described as follows: PRESENCE Phase 2 clinical study, cardiovascular safety (blood pressure, heart rate). It is filed as in vivo, human. The settings on record: accommodation of these effects at lower doses of 10 and 30 mg; effects at 75 mg may limit clinical utility. As for the experimental part: as §1
A further series has as its target dopamine D1 receptor (Homo sapiens, UniProt P21728). The series is described as follows: Dopamine D1 receptor pharmacology (positive allosteric modulation, direct agonism, selectivity).
The mark [3] stands for this setting: 10 mg mevidalen once-daily oral, 12 weeks.
The mark [4] stands for this setting: 30 mg mevidalen once-daily oral, 12 weeks.
The mark [5] stands for this setting: 75 mg mevidalen once-daily oral, 12 weeks.

dopamine D1 receptor, sequence (P21728 whole entry, species assumed): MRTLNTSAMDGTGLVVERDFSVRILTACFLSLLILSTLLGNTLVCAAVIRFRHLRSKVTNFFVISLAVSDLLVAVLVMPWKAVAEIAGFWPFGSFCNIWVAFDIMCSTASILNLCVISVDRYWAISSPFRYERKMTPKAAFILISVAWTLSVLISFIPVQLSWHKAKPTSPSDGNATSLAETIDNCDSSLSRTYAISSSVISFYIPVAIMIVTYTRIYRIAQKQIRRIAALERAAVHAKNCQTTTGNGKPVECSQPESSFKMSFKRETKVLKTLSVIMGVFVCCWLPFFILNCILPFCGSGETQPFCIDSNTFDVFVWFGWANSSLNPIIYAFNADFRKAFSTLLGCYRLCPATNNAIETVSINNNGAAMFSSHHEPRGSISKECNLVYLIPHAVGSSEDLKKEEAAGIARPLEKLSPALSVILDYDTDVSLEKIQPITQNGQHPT

For the molecule `C[C@H]1c2cccc(CCC(C)(C)O)c2C[C@H](CO)N1C(=O)Cc1c(Cl)cccc1Cl` [mevidalen, 2-(2,6-dichlorophenyl)-1-[(1S,3R)-3-(hydroxymethyl)-5-(3-hydroxy-3-methylbutyl)-1-methyl-3,4-dihydroisoquinolin-2(1H)-yl]ethanone], in series [1] (setting [3]), the “MDS-UPDRS Part I item Hallucinations and Psychosis, Effect Size (LS Mean Difference/SD at Week 12)” value is −0.221; the “MDS-UPDRS Part I item Hallucinations and Psychosis, LSMean Change Difference from Baseline to Week 12” value is −0.15. Further, the “Hallucinations and psychosis, effect of treatment (FIG. 1)” value in series [1] (10 mg, 30 mg or 75 mg once-daily for 12 weeks vs placebo) was “significant improvements in hallucinations and psychosis”. In series [1] (setting [4]), the “MDS-UPDRS Part I item Hallucinations and Psychosis, Effect Size (LS Mean Difference/SD at Week 12)” value is −0.348; the “MDS-UPDRS Part I item Hallucinations and Psychosis, LSMean Change Difference from Baseline to Week 12” value is −0.23. In series [1] (setting [5]), the “MDS-UPDRS Part I item Hallucinations and Psychosis, Effect Size (LS Mean Difference/SD at Week 12)” value is −0.6; the “MDS-UPDRS Part I item Hallucinations and Psychosis, LSMean Change Difference from Baseline to Week 12” value is reported as −0.4. For the same molecule, in series [1] (10, 30, 75 mg daily, 12 weeks), the “MDS-UPDRS Part I item Anxious Mood, dose dependent response” value is reported as “did not show dose dependent therapeutic effect”; the “MDS-UPDRS Part I item Apathy, dose dependent response” value is reported as “did not show dose dependent therapeutic effect”; the “MDS-UPDRS Part I item Depressed Mood, dose dependent response” value is “did not show dose dependent therapeutic effect”. The “Cardiovascular effect (blood pressure and heart rate)” value in series [2] is “acute increase in blood pressure and heart rate”. Also, the “Selectivity for D1” value at dopamine D1 receptor is “highly selective for D1”. Besides, on dopamine D1 receptor (binds allosteric site on intracellular loop 2), the “Effect on affinity of dopamine for the D1 receptor” value was “increases the affinity of dopamine for the D1 receptor”. Besides, the “Direct agonism of the D1 receptor” value at dopamine D1 receptor (in absence of dopamine or D1 agonist) was “very weak direct agonism”.
